# Measured values: PubChem BioAssay AID2060908 (Molecular Pharmacology Branch, DTP, NCI, 2025)
# System: 186277-243-T-J2-PDC complex spheroids, viability
# Assay: Anticancer human tumor 186277-243-T-J2-PDC patient-derived colon adenocarcinoma cell line growth inhibition [RAS]
# Settings: for IC50: curve of first compound; for viability, T/C: stronger effect = lower value
# Summary of the method: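 Tumour cells grown as complex spheroids with HUVEC endothelial cells and mesenchymal stem cells, treated with RAS pathway inhibitor combinations. Each agent spans half-log steps from near clinical Cmax, or 10 microM where Cmax is unknown.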
# 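Also: spheroids exposed to compounds for 7 days before viability read.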
structure (smiles),measurement,setting,value
CCC(CC)c1cc(NC2CCC(N)C2)n2nccc2n1 (configuration not stated) + C=CC(=O)N1CCN(c2nc(OCC3CCCN3C)nc3c(F)c(-c4nc(N)cc(C)c4C(F)(F)F)c(Cl)cc23)C(C)C1,IC50,second compound 0.00316 µM,1.86 µM
same,IC50,second compound 0.01 µM,1.67 µM
same,IC50,second compound 0.0316 µM,1.8 µM
same,IC50,second compound 0.1 µM,1.55 µM
same,IC50,second compound 0.316 µM,1.81 µM
same,IC50,second compound 1 µM,1.6 µM
same,"viability, T/C","second compound 0.00316 µM, first compound 0.0316 µM",91.8%
same,"viability, T/C","second compound 0.00316 µM, first compound 0.1 µM",97.2%
same,"viability, T/C","second compound 0.00316 µM, first compound 0.316 µM",89.5%
same,"viability, T/C","second compound 0.00316 µM, first compound 1 µM",117%
same,"viability, T/C","second compound 0.00316 µM, first compound 3.16 µM",7.95%
same,"viability, T/C","second compound 0.00316 µM, first compound 10 µM",0.31%
same,"viability, T/C","second compound 0.01 µM, first compound 0.0316 µM",78%
same,"viability, T/C","second compound 0.01 µM, first compound 0.1 µM",103%
same,"viability, T/C","second compound 0.01 µM, first compound 0.316 µM",76.2%
same,"viability, T/C","second compound 0.01 µM, first compound 1 µM",84.2%
same,"viability, T/C","second compound 0.01 µM, first compound 3.16 µM",7.63%
same,"viability, T/C","second compound 0.01 µM, first compound 10 µM",0.49%
same,"viability, T/C","second compound 0.0316 µM, first compound 0.0316 µM",86.4%
same,"viability, T/C","second compound 0.0316 µM, first compound 0.1 µM",93.5%
same,"viability, T/C","second compound 0.0316 µM, first compound 0.316 µM",93.8%
same,"viability, T/C","second compound 0.0316 µM, first compound 1 µM",115%
same,"viability, T/C","second compound 0.0316 µM, first compound 3.16 µM",5.08%
same,"viability, T/C","second compound 0.0316 µM, first compound 10 µM",0.32%
same,"viability, T/C","second compound 0.1 µM, first compound 0.0316 µM",93%
same,"viability, T/C","second compound 0.1 µM, first compound 0.1 µM",102%
same,"viability, T/C","second compound 0.1 µM, first compound 0.316 µM",77.5%
same,"viability, T/C","second compound 0.1 µM, first compound 1 µM",79%
same,"viability, T/C","second compound 0.1 µM, first compound 3.16 µM",3.18%
same,"viability, T/C","second compound 0.1 µM, first compound 10 µM",0.31%
same,"viability, T/C","second compound 0.316 µM, first compound 0.0316 µM",81%
same,"viability, T/C","second compound 0.316 µM, first compound 0.1 µM",94.3%
same,"viability, T/C","second compound 0.316 µM, first compound 0.316 µM",117%
same,"viability, T/C","second compound 0.316 µM, first compound 1 µM",109%
same,"viability, T/C","second compound 0.316 µM, first compound 3.16 µM",2.74%
same,"viability, T/C","second compound 0.316 µM, first compound 10 µM",0.35%
same,"viability, T/C","second compound 1 µM, first compound 0.0316 µM",102%
same,"viability, T/C","second compound 1 µM, first compound 0.1 µM",91.8%
same,"viability, T/C","second compound 1 µM, first compound 0.316 µM",101%
same,"viability, T/C","second compound 1 µM, first compound 1 µM",82.9%
same,"viability, T/C","second compound 1 µM, first compound 3.16 µM",2.87%
same,"viability, T/C","second compound 1 µM, first compound 10 µM",0.37%
